Laboratory results: paper PMC8584173, “The Cytotoxic Effect of Copper (II) Complexes with Halogenated 1,3-Disubstituted Arylthioureas on Cancer and Bacterial Cells” (International Journal of Molecular Sciences, 2021)
“And” between values parts separate entries of the source, which are not always exact repeats. Equal values may be shown once.

Assays:
standard staphylococci = assay: MIC, standard staphylococci; assay type: cell-based, Staphylococcus; conditions: standard staphylococci / S. aureus isolates
Description: (§1) The antimicrobial activity of the compounds was tested on Gram-positive bacteria (Staphylococcus aureus NCTC 4163, Staphylococcus aureus ATCC 25923, Staphylococcus aureus ATCC 6538, Staphylococcus aureus ATCC 29213, Staphylococcus epidermidis ATCC 12228, Staphylococcus epidermidis ATCC 35984), Gram-negative rods (Escherichia coli ATCC 10538, Escherichia coli ATCC 25922, Pseudomonas aeruginosa ATCC 15442, Pseudomonas aeruginosa ATCC 27863) and yeasts (Candida albicans ATCC 10231, Candida albicans ATCC 90028, Candida parapsilosis ATCC 22019). Hospital methicillin-resistant strains of Staphylococcus aureus and Staphylococcus epidermidis were obtained from the collection of the Department of Pharmaceutical Microbiology, Medical University of Warsaw, Poland.
(§2) Antifungal activities were assessed using Mueller–Hinton agar + 2% glucose and 0.5 µg/mL methylene blue dye medium. Sterile filter paper discs (9 mm diameter, Whatman Number 3 chromatography paper) were dripped with tested compound solutions (in dimethylsulfoxide, DMSO) to load 400 μg of a given compound per disc. Dry discs were placed on the surface of appropriate agar medium. The results (diameter of the growth inhibition zone) were read after 18 h of incubation at 35 °C. Minimal inhibitory concentration (MIC) was tested by the twofold serial microdilution method (in 96-well microtiter plates) using Mueller–Hinton broth medium (Beckton Dickinson) for bacteria or RPMI-1640 medium for Candida species, according to CLSI guidelines. The stock solution of tested agent was prepared in DMSO and diluted in sterile water. […] The final inoculum of all studied microorganisms was 10^5 CFU/ mL^−1 (colony forming units per ml). Minimal inhibitory concentrations (the lowest concentration of a tested agent that prevents visible growth of a microorganism) were read after 18 h (bacteria) or 24 h (yeasts) of incubation at 35 °C.

[1] = test system: clinical methicillin-resistant strains of S. aureus (MRSA) and S. epidermidis (MRSE); assay: MIC, clinical strains; assay type: cell-based, Staphylococcus
Description: as §1, §2

Candida species = assay: MIC, Candida species; assay type: cell-based; conditions: studied Candida species
Description: as §1, §2

[2] = test system: hospital S. aureus (MRSA); assay: MIC, hospital S. aureus; assay type: cell-based, Staphylococcus aureus; conditions: clinical S. aureus rods (six for 1–4, 7, 8)
Description: as §1, §2

[3] = test system: Thioredoxin-dependent peroxide reductase, mitochondrial (PRDX3_HUMAN); assay: LC–MS proteome analysis, PRDX3; assay type: cell-based, Homo sapiens; conditions: IC50 concentration, % of control
Description: (§3) Enzymes involved in oxidoreductive potential were analyzed in the cell lysates obtained after treatment cells with selected conjugates for 24 h. Cells were washed with phosphate-buffered saline (PBS) and harvested, then centrifuged at 1000× g for 10 min. Then, lysis buffer (containing protease inhibitor, 1% RIPA Lysis and Extraction Buffer (ThermoFisher)) and cold PBS were added, and samples were sonicated three times in ice bath. Next, the cell lysates were centrifuged at 14,000× g at 4 °C for 15 min, and then supernatants were stored at […] before use. Protein concentration was measured by the Bradford method.
(§4) Normalized protein concentrations (5 µg) from cell lysate were precipitated by ice cold (–20 °C) acetonitrile (ACN, Merck, in ratio 1:4). Then, samples were centrifuged (–9 °C, 30 min., 18,000× g), the supernatant was discarded and ACN excess was evaporated using a vacuum centrifuge (5 min., room temp.). Protein pellet was dissolved in 40 mM ammonium bicarbonate. An amount of 500 mM dithiothreitol (DTT, with final concentration 20 mM) and 1 M iodoacetamide (IAA, with final concentration 40 mM) were used for reduction and alkylation processes. After 16 h of incubation in 37 °C with Trypsin Gold (Promega), digested protein samples were diluted with 0.1% formic acid (ThermoFisher) and centrifuged (+2 °C, 30 min, 18,000× g).
(§5) LC–MS analysis was carried out with the use of nanoUHPLC (nanoElute, Bruker) coupled by CaptiveSpray (Bruker) to ESI-Q-TOF mass spectrometer (Compact, Bruker). Two-column separation method was used, i.e., pre-column (300 µm × 5 mm, C18 PepMap 100, 5 µm, 100Å, Thermo Scientific) and Aurora separation column with CSI fitting (75 µm × 250 mm, C18 1.6 µm) in gradient 2% B to 35% B in 90 min with the 300 nL/min flow rate. Mobile phases (A) 0.1% formic acid in water and (B) 0.1% formic acid in ACN were used.
(§6) Sample ionizations were performed at a gas flow of 3.0 L/min, temperature of 150 °C and voltage of the capillary at 1600 V. The quadrupole energy was fixed to 5.0 eV and collision chamber energy 7.0 eV, with an ion transfer time of 90 µs. The ions were analyzed in the positive polarity mode in the range 150–2200 m/z, with the acquisition frequency of the 1 Hz spectrum, as well as with the autoMS/MS system.
(§7) The collected spectra were analyzed and calibrated using DataAnalysis software (Bruker) and then identified in ProteinScape (Bruker) by the MASCOT server. Protein identification was conducted using the online SwissProt and NCBIprot databases, and their references and biological significance were identified using Reactome.org, String.org and KEGG.

[4] = test system: Glutathione S-transferase P (GSTP1_HUMAN); assay: LC–MS proteome analysis, GSTP1; assay type: cell-based, Homo sapiens; conditions: IC50 concentration, % of control
Description: as §3, §4, §5, §6, §7

[5] = test system: Peroxiredoxin-1 (PRDX1_HUMAN); assay: LC–MS proteome analysis, PRDX1; assay type: cell-based, Homo sapiens; conditions: IC50 concentration, % of control
Description: as §3, §4, §5, §6, §7

[6] = test system: Superoxide dismutase [Cu-Zn] (SODC_HUMAN); assay: LC–MS proteome analysis, SODC; assay type: cell-based, Homo sapiens; conditions: IC50 concentration, % of control
Description: as §3, §4, §5, §6, §7

[7] = test system: Glutathione S-transferase A1 (GSTA1_HUMAN); assay: LC–MS proteome analysis, GSTA1; assay type: cell-based, Homo sapiens; conditions: for Protein Intensity, % (GSTA1): IC50 concentration, % of control
Description: as §3, §4, §5, §6, §7

[8] = test system: Superoxide dismutase [Mn], mitochondrial (SODM_HUMAN); assay: LC–MS proteome analysis, SODM; assay type: cell-based, Homo sapiens; conditions: IC50 concentration, % of control
Description: as §3, §4, §5, §6, §7

[9] = test system: Glutathione S-transferase omega-1 (GSTO1_HUMAN); assay: LC–MS proteome analysis, GSTO1; assay type: cell-based, Homo sapiens; conditions: IC50 concentration, % of control
Description: as §3, §4, §5, §6, §7

[10] = test system: Peroxiredoxin-6 (PRDX6_HUMAN); assay: LC–MS proteome analysis, PRDX6; assay type: cell-based, Homo sapiens; conditions: IC50 concentration, % of control
Description: as §3, §4, §5, §6, §7

[11] = test system: Glutathione reductase, mitochondrial (GSHR_HUMAN); assay: LC–MS proteome analysis, GSHR; assay type: cell-based, Homo sapiens; conditions: IC50 concentration, % of control
Description: as §3, §4, §5, §6, §7

Structure (SMILES): O=[N+]([O-])c1cc([N+]2=C(Nc3cccc(Br)c3)[S][Cu-2]23[S]C(Nc2cccc(Br)c2)=[N+]3c2ccc(Cl)c([N+](=O)[O-])c2)ccc1Cl [Compound 2, Copper (II) complex with 1-(3-bromophenyl)-3-(4-chloro-3-nitrophenyl)thiourea]
- MIC (standard staphylococci): 16 to 32 µg/mL
- MIC [1]: 4 to 8 µg/mL
- growth inhibitory dose (Candida species): 64 µg/mL

Structure (SMILES): O=[N+]([O-])c1cc([N+]2=C(Nc3ccc(Cl)c(Cl)c3)[S][Cu-2]23[S]C(Nc2ccc(Cl)c(Cl)c2)=[N+]3c2ccc(Cl)c([N+](=O)[O-])c2)ccc1Cl [Compound 5, Copper (II) complex with 1-(4-chloro-3-nitrophenyl)-3-(3,4-dichlorophenyl)thiourea]
- times stronger / more potent than ciprofloxacin [2]: 4–16 times
- MIC (standard staphylococci): 16 to 32 µg/mL and 32 µg/mL

Structure (SMILES): O=[N+]([O-])c1cc([N+]2=C(Nc3ccc(I)cc3)[S][Cu-2]23[S]C(Nc2ccc(I)cc2)=[N+]3c2ccc(Cl)c([N+](=O)[O-])c2)ccc1Cl [Compound 8, Copper (II) complex with 1-(4-iodophenyl)-3-(4-chloro-3-nitrophenyl)thiourea]
- Protein Intensity, % (PRDX3) ([3]; PC3, 24 h): 24.8%
- Protein Intensity, % (PRDX3) ([3]; SW480, 24 h): 96.3%
- Protein Intensity, % (PRDX3) ([3]; SW620, 24 h): 95.2%
- Protein Intensity, % (GSTP1) ([4]; PC3, 24 h): 64.1%
- Protein Intensity, % (GSTP1) ([4]; SW480, 24 h): 83.0%
- Protein Intensity, % (GSTP1) ([4]; SW620, 24 h): 57.5%
- Protein Intensity, % (PRDX1) ([5]; PC3, 24 h): 52.3%
- Protein Intensity, % (PRDX1) ([5]; SW480, 24 h): 84.4%
- Protein Intensity, % (PRDX1) ([5]; SW620, 24 h): 93.5%
- Protein Intensity, % (SODC) ([6]; PC3, 24 h): 33.0%
- Protein Intensity, % (SODC) ([6]; SW480, 24 h): 88.2%
- Protein Intensity, % (SODC) ([6]; SW620, 24 h): 64.5%
- Protein Intensity, % (GSTA1) ([7]; PC3, 24 h): 73.5%
- Protein Intensity, % (GSTA1) ([7]; SW480, 24 h): 91.6%
- Protein Intensity, % (GSTA1) ([7]; SW620, 24 h): 54.3%
- decrease in the amount of GSTA1 ([7]; SW620, IC50 concentration): 45.7%
- Protein Intensity, % (SODM) ([8]; PC3, 24 h): 29.4%
- Protein Intensity, % (SODM) ([8]; SW480, 24 h): 94.3%
- Protein Intensity, % (SODM) ([8]; SW620, 24 h): 92.7%
- MIC (standard staphylococci): 4 µg/mL
- Protein Intensity, % (GSTO1) ([9]; PC3, 24 h): 31.6%
- Protein Intensity, % (GSTO1) ([9]; SW480, 24 h): 52.4%
- Protein Intensity, % (GSTO1) ([9]; SW620, 24 h): 65.0%
- MIC [1]: 4 to 8 µg/mL
- Protein Intensity, % (PRDX6) ([10]; PC3, 24 h): 53.7%
- Protein Intensity, % (PRDX6) ([10]; SW480, 24 h): 71.1%
- Protein Intensity, % (PRDX6) ([10]; SW620, 24 h): 77.6%
- Protein Intensity, % (GSHR) ([11]; PC3, 24 h): 68.5%
- Protein Intensity, % (GSHR) ([11]; SW480, 24 h): 74.3%
- Protein Intensity, % (GSHR) ([11]; SW620, 24 h): 79.3%
- growth inhibitory dose (Candida species): 64 µg/mL

Structure (SMILES): O=[N+]([O-])c1cc([N+]2=C(Nc3ccccc3Br)[S][Cu-2]23[S]C(Nc2ccccc2Br)=[N+]3c2ccc(Cl)c([N+](=O)[O-])c2)ccc1Cl [Compound 1, Copper (II) complex with 1-(2-bromophenyl)-3-(4-chloro-3-nitrophenyl)thiourea]
- Protein Intensity, % (PRDX3) ([3]; PC3, 24 h): 69.5%
- Protein Intensity, % (PRDX3) ([3]; SW480, 24 h): 95.2%
- Protein Intensity, % (PRDX3) ([3]; SW620, 24 h): 69.9%
- Protein Intensity, % (GSTP1) ([4]; PC3, 24 h): 95.0%
- Protein Intensity, % (GSTP1) ([4]; SW480, 24 h): 84.8%
- Protein Intensity, % (GSTP1) ([4]; SW620, 24 h): 74.4%
- Protein Intensity, % (PRDX1) ([5]; PC3, 24 h): 73.9%
- Protein Intensity, % (PRDX1) ([5]; SW480, 24 h): 95.9%
- Protein Intensity, % (PRDX1) ([5]; SW620, 24 h): 96.1%
- Protein Intensity, % (SODC) ([6]; PC3, 24 h): 58.5%
- Protein Intensity, % (SODC) ([6]; SW480, 24 h): 68.2%
- Protein Intensity, % (SODC) ([6]; SW620, 24 h): 72.7%
- Protein Intensity, % (GSTA1) ([7]; PC3, 24 h): 84.4%
- Protein Intensity, % (GSTA1) ([7]; SW480, 24 h): 78.3%
- Protein Intensity, % (GSTA1) ([7]; SW620, 24 h): 50.2%
- Protein Intensity, % (SODM) ([8]; PC3, 24 h): 29% and 29.1%
- Protein Intensity, % (SODM) ([8]; SW480, 24 h): 67.8%
- Protein Intensity, % (SODM) ([8]; SW620, 24 h): 88.8%
- Protein Intensity, % (GSTO1) ([9]; PC3, 24 h): 65.0%
- Protein Intensity, % (GSTO1) ([9]; SW480, 24 h): 70.9%
- Protein Intensity, % (GSTO1) ([9]; SW620, 24 h): 85.5%
- MIC [1]: 4 to 8 µg/mL
- Protein Intensity, % (PRDX6) ([10]; PC3, 24 h): 66.6%
- Protein Intensity, % (PRDX6) ([10]; SW480, 24 h): 75.1%
- Protein Intensity, % (PRDX6) ([10]; SW620, 24 h): 83.2%
- Protein Intensity, % (GSHR) ([11]; PC3, 24 h): 71.1%
- Protein Intensity, % (GSHR) ([11]; SW480, 24 h): 58.1%
- Protein Intensity, % (GSHR) ([11]; SW620, 24 h): 69.1%
